Assay results: US20240116985A1, “STAPLED PEPTIDES AND METHODS THEREOF” (priority 2020, published 2024)
≈ marks a conversion by molar mass, not a printed value. Read-outs that look alike come from different tables or passages of the source.

Experiments:
CHI Log D procedure = type: physicochemical; details: for chromatographic logD: pH 7.4, CHI Log D; for CHI Log D: pH 7.4
[1] = biological target: T1, full-length beta-Catenin (Uniprot ID P35222) (Homo sapiens, UniProt P35222); assay: Fluorescence polarization IC50 (beta-catenin / 5FAM-TCF4 10-53 competition); type: binding
T1 construct: 10 nM full-length beta-Catenin (Uniprot ID P35222)
T1 sequence (P35222 1-781): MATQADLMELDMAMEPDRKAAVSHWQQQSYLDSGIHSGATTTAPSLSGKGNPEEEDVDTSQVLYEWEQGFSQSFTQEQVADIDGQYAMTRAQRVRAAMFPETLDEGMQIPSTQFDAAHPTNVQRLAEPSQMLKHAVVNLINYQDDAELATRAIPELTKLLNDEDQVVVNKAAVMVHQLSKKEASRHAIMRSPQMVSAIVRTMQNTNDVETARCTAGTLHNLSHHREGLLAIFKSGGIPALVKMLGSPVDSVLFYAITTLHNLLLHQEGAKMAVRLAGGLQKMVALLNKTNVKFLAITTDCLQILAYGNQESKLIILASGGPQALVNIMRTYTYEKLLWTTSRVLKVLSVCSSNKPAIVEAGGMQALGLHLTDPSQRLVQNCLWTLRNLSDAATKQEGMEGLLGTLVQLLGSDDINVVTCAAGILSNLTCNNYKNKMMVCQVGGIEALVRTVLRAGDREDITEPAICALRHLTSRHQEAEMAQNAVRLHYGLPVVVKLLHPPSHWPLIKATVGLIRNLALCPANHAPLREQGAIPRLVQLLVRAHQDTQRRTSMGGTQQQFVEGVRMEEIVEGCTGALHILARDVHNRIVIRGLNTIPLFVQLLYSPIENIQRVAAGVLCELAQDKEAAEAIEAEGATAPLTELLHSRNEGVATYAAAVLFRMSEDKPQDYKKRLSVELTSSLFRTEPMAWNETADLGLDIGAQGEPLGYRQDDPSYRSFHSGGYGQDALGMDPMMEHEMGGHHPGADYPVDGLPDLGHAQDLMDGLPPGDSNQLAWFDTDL

Solubility in PBS = type: physicochemical
In short: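 Steps: ultracentrifuge the peptide PBS solution, inject the supernatant on HPLC, inject a 50 μM peptide DMSO solution as reference, then calculate solubility as area ratio (PBS/DMSO) × 50 uM.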

[2] = fluorescence polarization, read-out: beta-Catenin FP IC50

| Compound | chromatographic logD (CHI Log D procedure) | IC50 [1, 2] [nM] | Solubility (Solubility in PBS; Solubility (uM)) [µM] | CHI Log D (CHI Log D procedure) | IC50 ([1]; read-out: FP EC50) [nM] | Solubility (Solubility in PBS) [µM] |
| --- | --- | --- | --- | --- | --- | --- |
| CC(=O)N1CCC[C@]12CC=CCCCC1(CCCC=CCCCCCC[C@@](C)(C(=O)N[C@@H](Cc3ccccc3)C(=O)N[C@@H](Cc3csc4ccccc34)C(=O)N[C@@H](CCC(N)=O)C(N)=O)NC(=O)[C@H]([C@@H](C)O)NC(=O)[C@H](Cc3ccccc3)NC(=O)[C@H](C)NC(=O)[C@H](C)NC(=O)[C@H](CCC(=O)O)NC(=O)[C@H](CC(=O)O)NC1=O)NC(=O)[C@H](C)NC(=O)[C@H](CC(=O)O)NC2=O (stereo partly drawn) [I-423, Ac-PL3-Asp-Ala-B5-Asp-Glu-Ala-Ala-Phe-Thr-S8-Phe-BztA-Gln-NH2] | 2.09 | 105 | 48 (≈ 87.1 µg/mL) | – | – | – |
| CC(=O)N1CCC[C@]12CC=CCCCC1(CCCC=CCCCCCC[C@@](C)(C(=O)N[C@@H](Cc3ccccc3)C(=O)N[C@@H](Cc3csc4ccccc34)C(=O)N[C@@H](CCC(N)=O)C(N)=O)NC(=O)[C@H](CC(N)=O)NC(=O)[C@H](Cc3ccccc3)NC(=O)[C@H](C)NC(=O)[C@H](C)NC(=O)[C@H](CCC(=O)O)NC(=O)[C@H](CC(=O)O)NC1=O)NC(=O)[C@H](C)NC(=O)[C@H](CC(=O)O)NC2=O (stereo partly drawn) [I-424, Ac-PL3-Asp-Ala-B5-Asp-Glu-Ala-Ala-Phe-Asn-S8-Phe-BztA-Gln-NH2] | – | 170 | – | 1.968 | 170 | 50 (≈ 91.4 µg/mL) |
| CC(=O)N1CCC[C@]12CC=CCCCC1(CCCC=CCCCCCC[C@@](C)(C(=O)N[C@@H](Cc3ccccc3)C(=O)N[C@@H](Cc3csc4ccccc34)C(=O)N[C@@H](CCC(N)=O)C(N)=O)NC(=O)[C@H](CC(N)=O)NC(=O)[C@H](Cc3ccccc3)NC(=O)[C@H](C)NC(=O)[C@H](C)NC(=O)[C@H](CCC(=O)O)NC(=O)[C@H](CC(=O)O)NC1=O)NC(=O)[C@H](C)NC(=O)[C@H](CC(=O)O)NC2=O (stereo partly drawn) [I-425, Ac-PL3-Asp-Ala-B5-Asp-Glu-Ala-Ala-Phe-Asn-S8-Phe-BztA-Gln-NH2] | – | 50 | – | 2.01 | 50 | 45 (≈ 82.2 µg/mL) |
| CC(=O)N1CCC[C@]12CC=CCCCC1(CCCC=CCCCCCC[C@@](C)(C(=O)N[C@@H](Cc3ccsc3)C(=O)N[C@@H](Cc3csc4ccccc34)C(=O)N[C@@H](CCC(N)=O)C(N)=O)NC(=O)[C@H](CCC(N)=O)NC(=O)[C@H](Cc3ccccc3)NC(=O)[C@H](C)NC(=O)[C@H](C)NC(=O)[C@H](CCC(=O)O)NC(=O)[C@H](CC(=O)O)NC1=O)NC(=O)[C@H](C)NC(=O)[C@H](CC(=O)O)NC2=O (stereo partly drawn) [I-426, Ac-PL3-Asp-Ala-B5-Asp-Glu-Ala-Ala-Phe-Gln-S8-3Thi-BztA-Gln-NH2] | – | 109 | – | 1.959 | 109 | 33 (≈ 61 µg/mL) |
| CC(=O)N1CCC[C@]12CC=CCCCC1(CCCC=CCCCCCC[C@@](C)(C(=O)N[C@@H](Cc3ccsc3)C(=O)N[C@@H](Cc3csc4ccccc34)C(=O)N[C@@H](CCC(N)=O)C(N)=O)NC(=O)[C@H](CCC(N)=O)NC(=O)[C@H](Cc3ccccc3)NC(=O)[C@H](C)NC(=O)[C@H](C)NC(=O)[C@H](CCC(=O)O)NC(=O)[C@H](CC(=O)O)NC1=O)NC(=O)[C@H](C)NC(=O)[C@H](CC(=O)O)NC2=O (stereo partly drawn) [I-427, Ac-PL3-Asp-Ala-B5-Asp-Glu-Ala-Ala-Phe-Gln-S8-3Thi-BztA-Gln-NH2] | – | 38.5 | – | 1.985 | 38.5 | 50 (≈ 92.4 µg/mL) |
| CC(=O)N1CCC[C@]12CC=CCCCC1(CCCC=CCCCCCC[C@@](C)(C(=O)N[C@@H](Cc3cccs3)C(=O)N[C@@H](Cc3csc4ccccc34)C(=O)N[C@@H](CCC(N)=O)C(N)=O)NC(=O)[C@H](CCC(N)=O)NC(=O)[C@H](Cc3ccccc3)NC(=O)[C@H](C)NC(=O)[C@H](C)NC(=O)[C@H](CCC(=O)O)NC(=O)[C@H](CC(=O)O)NC1=O)NC(=O)[C@H](C)NC(=O)[C@H](CC(=O)O)NC2=O (stereo partly drawn) [I-428, Ac-PL3-Asp-Ala-B5-Asp-Glu-Ala-Ala-Phe-Gln-S8-2Thi-BztA-Gln-NH2] | 1.99 | 60 | 14 (≈ 25.9 µg/mL) | – | – | – |
| CC(=O)N1CCC[C@]12CC=CCCCC1(CCCC=CCCCCCC[C@@](C)(C(=O)N[C@@H](Cc3cccc(F)c3)C(=O)N[C@@H](Cc3csc4ccccc34)C(=O)N[C@@H](CCC(N)=O)C(N)=O)NC(=O)[C@H](CCC(N)=O)NC(=O)[C@H](Cc3ccsc3)NC(=O)[C@H](C)NC(=O)[C@H](C)NC(=O)[C@H](CCC(=O)O)NC(=O)[C@H](CC(=O)O)NC1=O)NC(=O)[C@H](C)NC(=O)[C@H](CC(=O)O)NC2=O (stereo partly drawn) [I-429, Ac-PL3-Asp-Ala-B5-Asp-Glu-Ala-Ala-3Thi-Gln-S8-3FF-BztA-Gln-NH2] | 2.07 | 146 | – | – | – | 50 (≈ 93.3 µg/mL) |
| CC(=O)N1CCC[C@]12CC=CCCCC1(CCCC=CCCCCCC[C@@](C)(C(=O)N[C@@H](Cc3cccc(F)c3)C(=O)N[C@@H](Cc3csc4ccccc34)C(N)=O)NC(=O)[C@H](CCC(N)=O)NC(=O)[C@H](Cc3ccsc3)NC(=O)[C@H](C)NC(=O)[C@H](C)NC(=O)[C@H](CCC(=O)O)NC(=O)[C@H](CC(=O)O)NC1=O)NC(=O)[C@H](C)NC(=O)[C@H](CC(=O)O)NC2=O (stereo partly drawn) [I-431, Ac-PL3-Asp-Ala-B5-Asp-Glu-Ala-Ala-3Thi-Gln-S8-3FF-BztA-NH2] | 2.23 | 1320 | 33 (≈ 57.3 µg/mL) | – | – | – |
| CC(=O)N1CCC[C@]12CC=CCCCC1(CCCC=CCCCCCC[C@@](C)(C(=O)N[C@@H](Cc3ccccc3)C(=O)N[C@@H](Cc3csc4ccccc34)C(N)=O)NC(=O)[C@H](CC(N)=O)NC(=O)[C@H](Cc3ccccc3)NC(=O)[C@H](C)NC(=O)[C@H](C)NC(=O)[C@H](CCC(=O)O)NC(=O)[C@H](CC(=O)O)NC1=O)NC(=O)[C@H](C)NC(=O)[C@H](CC(=O)O)NC2=O (stereo partly drawn) [I-432, Ac-PL3-Asp-Ala-B5-Asp-Glu-Ala-Ala-Phe-Asn-S8-Phe-BztA-NH2] | 2.23 | 145 | 23 (≈ 39.1 µg/mL) | – | – | – |
| COC[C@@H]1NC(=O)[C@H](Cc2ccccc2)NC(=O)[C@H](C)NC(=O)[C@H](C)NC(=O)[C@H](CCC(=O)O)NC(=O)[C@H](CC(=O)O)NC(=O)C2(CCCC=CCCCCCC[C@@](C)(C(=O)N[C@@H](Cc3ccccc3)C(=O)N[C@@H](Cc3csc4ccccc34)C(=O)N[C@@H](CCC(N)=O)C(N)=O)NC1=O)CCCC=CC[C@]1(CCCN1C(C)=O)C(=O)N[C@@H](CC(=O)O)C(=O)N[C@@H](C)C(=O)N2 (stereo partly drawn) [I-433, Ac-PL3-Asp-Ala-B5-Asp-Glu-Ala-Ala-Phe-S(OMe)-S8-Phe-BztA-Gln-NH2] | 2.08 | 136 | 39 (≈ 70.7 µg/mL) | – | – | – |
| CC(=O)N1CCC[C@]12CC=CCCCC1(CCCC=CCCCCCC[C@@](C)(C(=O)N[C@@H](Cc3ccccc3F)C(=O)N[C@@H](Cc3csc4ccccc34)C(=O)N[C@@H](CCC(N)=O)C(N)=O)NC(=O)[C@H](CC(N)=O)NC(=O)[C@H](Cc3ccccc3)NC(=O)[C@H](C)NC(=O)[C@H](C)NC(=O)[C@H](CCC(=O)O)NC(=O)[C@H](CC(=O)O)NC1=O)NC(=O)[C@H](C)NC(=O)[C@H](CC(=O)O)NC2=O (stereo partly drawn) [I-434, Ac-PL3-Asp-Ala-B5-Asp-Glu-Ala-Ala-Phe-Asn-S8-2FF-BztA-Gln-NH2] | 2.05 | 67.5 | 20 (≈ 36.9 µg/mL) | – | – | – |
| CC(=O)N1CCC[C@]12CC=CCCCC1(CCCC=CCCCCCC[C@@](C)(C(=O)N[C@@H](Cc3ccccc3Cl)C(=O)N[C@@H](Cc3csc4ccccc34)C(=O)N[C@@H](CCC(N)=O)C(N)=O)NC(=O)[C@H](CC(N)=O)NC(=O)[C@H](Cc3ccccc3)NC(=O)[C@H](C)NC(=O)[C@H](C)NC(=O)[C@H](CCC(=O)O)NC(=O)[C@H](CC(=O)O)NC1=O)NC(=O)[C@H](C)NC(=O)[C@H](CC(=O)O)NC2=O (stereo partly drawn) [I-435, Ac-PL3-Asp-Ala-B5-Asp-Glu-Ala-Ala-Phe-Asn-S8-2C1F-BztA-Gln-NH2] | 2.13 | 70 | – | – | – | 50 (≈ 93.1 µg/mL) |
| CC(=O)N1CCC[C@]12CC=CCCCC1(CCCC=CCCCCCC[C@@](C)(C(=O)N[C@@H](Cc3ccccc3Br)C(=O)N[C@@H](Cc3csc4ccccc34)C(=O)N[C@@H](CCC(N)=O)C(N)=O)NC(=O)[C@H](CC(N)=O)NC(=O)[C@H](Cc3ccccc3)NC(=O)[C@H](C)NC(=O)[C@H](C)NC(=O)[C@H](CCC(=O)O)NC(=O)[C@H](CC(=O)O)NC1=O)NC(=O)[C@H](C)NC(=O)[C@H](CC(=O)O)NC2=O (stereo partly drawn) [I-436, Ac-PL3-Asp-Ala-B5-Asp-Glu-Ala-Ala-Phe-Asn-S8-2BrF-BztA-Gln-NH2] | 2.16 | 56 | – | – | – | 50 (≈ 95.3 µg/mL) |
